According to PMC6801708 (2019):

Tested on: Pu22T14T23 (DNA, G4, none (G-to-T mutations at positions 14 and 23)) TGAGGGTGGGTAGGGTGGGTAA
Assay: CD melting at 262 nm
Conditions: K+ (20 mM KCl); 5 mM phosphate pH 7.0; 1 µM DNA, 3 µM ligand; Tm 77.4 to 80.6

Row | Compound | ΔTm
1 | CN(C)CCNC(=O)c1cccn2c(=O)c3cc4ccccc4cc3nc12 | +3.2 °C
2 | CN(C)CCNC(=O)c1cccn2c(=O)c3sc4ccccc4c3nc12 | +3.2 °C
